In the supplement of paper PMC5579334:
± gives the standard deviation of the averaged measurements.

Key:
S1507-2 [1] = assay: drug sensitivity score (DSS, CellTox-Green cytotoxicity, 72 h) (DSS (dimensionless)); higher = more cytotoxic; extreme values may be limits of the assay
Procedure, shortened: (§1)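 MPNST cell lines and primary human Schwann cells were grown for 72 h at 37 °C in 384-well plates containing five 10-fold compound dilutions. CellTox-Green, added before seeding at a final 1:1000 dilution, gave fluorescence from DNA released by disrupted cells, and signals were scaled to vehicle and positive-control wells. Curves were fitted with a four-parameter logistic model. Drug sensitivity score and relative IC50 come from these fits, with IC50 censored at the top concentration.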

[2] = test system: HSC2 (primary human Schwann cells); assay: as above
Procedure, shortened: as §1

HS-PSS [3] = assay: as above
Procedure, shortened: as §1

STS26T [4] = assay: as above
Procedure, shortened: as §1

ST8814 [5] = assay: as above
Procedure, shortened: as §1

[6] = test system: HSC1 (primary human Schwann cells); assay: as above
Procedure, shortened: as §1

YST-1 [7] = assay: drug sensitivity score (DSS, CellTiter-Glo viability, 72 h) (DSS (dimensionless)); higher = more sensitive; extreme values may be limits of the assay
Procedure, shortened: (§2)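 For this screen, 384-well plates were preprinted with each compound at five concentrations in 10-fold steps and seeded with MPNST cell lines or primary human Schwann cells at 750–1000 cells per well. Incubation lasted 72 h at 37 °C, 5% CO2, and CellTiter-Glo ATP luminescence, scaled between vehicle and positive-control wells and averaged over duplicates where available, served as viability. Logistic fits with four parameters were applied. Relative IC50 (censored at the top concentration) and drug sensitivity score derive from these fits, and percent inhibition is at the top concentration.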

HS-Sch-2 [8] = assay: as above
Procedure, shortened: as §2

S1507-2 [9] = assay: as above
Procedure, shortened: as §2

[10] = test system: HSC2 (primary human Schwann cells); assay: as above
Procedure, shortened: as §2

HS-PSS [11] = assay: as above
Procedure, shortened: as §2

STS26T [12] = assay: as above
Procedure, shortened: as §2

ST8814 [13] = assay: as above
Procedure, shortened: as §2

S462 [14] = assay: as above
Procedure, shortened: as §2

[15] = test system: HSC1 (primary human Schwann cells); assay: as above
Procedure, shortened: as §2

YST-1 [16] = assay: % inhibition of CellTiter-Glo viability at highest tested concentration (72 h), relative to DMSO and benzethonium chloride controls; higher = more inhibition
Procedure, shortened: as §2

HS-Sch-2 [17] = assay: as above
Procedure, shortened: as §2

S1507-2 [18] = assay: as above
Procedure, shortened: as §2

[19] = test system: HSC2 (primary human Schwann cells); assay: as above
Procedure, shortened: as §2

HS-PSS [20] = assay: as above
Procedure, shortened: as §2

STS26T [21] = assay: as above
Procedure, shortened: as §2

ST8814 [22] = assay: as above
Procedure, shortened: as §2

S462 [23] = assay: as above
Procedure, shortened: as §2

[24] = test system: HSC1 (primary human Schwann cells); assay: as above
Procedure, shortened: as §2

| Compound | drug sensitivity score (S1507-2 [1]) | drug sensitivity score [2] | drug sensitivity score (HS-PSS [3]) | drug sensitivity score (STS26T [4]) | drug sensitivity score (ST8814 [5]) | drug sensitivity score [6] | drug sensitivity score (YST-1 [7]) | drug sensitivity score (HS-Sch-2 [8]) | drug sensitivity score (S1507-2 [9]) | drug sensitivity score [10] | drug sensitivity score (HS-PSS [11]) | drug sensitivity score (STS26T [12]) | drug sensitivity score (ST8814 [13]) | drug sensitivity score (S462 [14]) | drug sensitivity score [15] | % inhibition (YST-1 [16]) [%] | % inhibition (HS-Sch-2 [17]) [%] | % inhibition (S1507-2 [18]) [%] | % inhibition [19] [%] | % inhibition (HS-PSS [20]) [%] | % inhibition (STS26T [21]) [%] | % inhibition (ST8814 [22]) [%] | % inhibition (S462 [23]) [%] | % inhibition [24] [%] |
| --- | --- | --- | --- | --- | --- | --- | --- | --- | --- | --- | --- | --- | --- | --- | --- | --- | --- | --- | --- | --- | --- | --- | --- | --- |
| CC(C)C[C@H](NC(=O)[C@H](CCc1ccccc1)NC(=O)CN1CCOCC1)C(=O)N[C@@H](Cc1ccccc1)C(=O)N[C@@H](CC(C)C)C(=O)[C@@]1(C)CO1 [Carfilzomib] (max concentration tested 1000 nM) | 21.4 ± 2.3 | 19.7 | 17.5 | 21.5 | 21.7 | 19.3 | 28.1 | 31.2 | 21.7 ± 1.4 | 24.4 | 23.3 | 24.9 | 24.8 | 29 ± 2 | 23 | 101 | 102 | 102.9 ± 0.73 | 101 | 99.9 | 103 | 102 | 104 ± 1.3 | 103 |
| CN(C)CCN1C(=O)c2cccc3cc(N)cc(c23)C1=O [Amonafide] (max concentration tested 10000 nM) | 2.18 ± 0.64 | 0.087 | 4.02 | 0.0609 | 3.57 | 0 | 11.1 | 8.84 | 8.84 ± 0.35 | 6.42 | 6.59 | 5.83 | 8.9 | 8.23 ± 0.65 | 7.05 | 100 | 99.9 | 90.4 ± 2 | 76.3 | 93.8 | 78.7 | 101 | 90.9 ± 2.4 | 69.3 |
| CN(C)C[C@@H]1CCn2cc(c3ccccc32)C2=C(C(=O)NC2=O)c2cn(c3ccccc23)CCO1 [Ruboxistaurin] (max concentration tested 10000 nM) | 6.69 ± 0.61 | 8.33 | 1.36 | 6.98 | 0.807 | 7.83 | 10 | 5.19 | 7.37 ± 0.77 | 7.78 | 5.24 | 5.76 | 3.54 | 6.12 ± 0.41 | 5.06 | 99.7 | 100 | 98.5 ± 4.9 | 96.3 | 86.7 | 97.6 | 39.6 | 78.9 ± 11 | 93.9 |
| CC1(C)CCC(c2ccc(Cl)cc2)=C(CN2CCN(c3ccc(C(=O)NS(=O)(=O)c4ccc(N[C@H](CCN5CCOCC5)CSc5ccccc5)c(S(=O)(=O)C(F)(F)F)c4)cc3)CC2)C1 [Navitoclax] (max concentration tested 10000 nM) | 16 ± 1.1 | 11.8 | 0 | 3.15 | 5.52 | 5.42 | 4.22 | 3.94 | 6.14 ± 0.43 | 5.16 | 0 | 0.0007 | 0.561 | 0.978 ± 0.8 | 2.32 | 34.2 | 32.7 | 47.8 ± 0.54 | 53.1 | 3.02 | 11.3 | 24.4 | 20.7 ± 5.9 | 23.8 |
| CC[C@H](CC#N)OC(=O)N[C@@H](C)c1cccc(NC(=O)Nc2ccc(-c3cnco3)c(OC)c2)c1 [AVN944] (max concentration tested 10000 nM) | 0 | 0 | 0 | 0.427 | 7.26 | 0 | 16 | 8.71 | 8.48 ± 0.44 | 20 | 12.5 | 12.2 | 11.4 | 14.5 ± 1.5 | 18.7 | 89.7 | 60.8 | 54.6 ± 5.9 | 76.8 | 69.4 | 74.3 | 78.7 | 81.8 ± 2.8 | 71.2 |
